# Key:
# [1] = On-set pH of crystallization of aqueous 2,4-D potassium solution with added crystal inhibitor (CI), pH lowered with 0.2 N sulfuric acid; type: physicochemical; details: 3% ae 2,4-D K salt in water; CI 0.2 wt %
# [2] = Spray solution compatibility (crystal formation) of 2,4-D and glyphosate salts with 2% AMS and added crystal inhibitor; type: physicochemical; details: 2% AMS, 342 ppm hardness water, 24 h room temperature
# From the text: Spray solutions were formed from aqueous concentrates of 2,4-D choline (prepared by mixing equimolar amounts of 2,4-D acid and choline hydroxide in water) or 2,4-D DMA and various glyphosate salts (potassium, isopropyl ammonium or dimethyl ammonium) at various concentrations (weight percent acid equivalent basis) of the respective active ingredients with and without added polyethylenimine or polyvinylamine crystal inhibitor (CI).
smiles,measurement,setting,value
"NCCNCCNCCNCCN [TEPA, tetraethylenepentamine]",On-set pH of Crystallization,[1],5.68
same,Result (crystals observed 24 hours after preparation of tank mixture),"[2]; 2,4-D choline 1.8 wt % ae + WeatherMax 1.8 wt % ae, CI 0.2%",1
same,Result (crystals observed 24 hours after preparation of tank mixture),"[2]; 2,4-D choline 1.8 wt % ae + WeatherMax 1.8 wt % ae, CI 0.4%",0
same,Result (crystals observed 24 hours after preparation of tank mixture),"[2]; 2,4-D choline 1.8 wt % ae + WeatherMax (glyphosate potassium) 1.8 wt % ae, CI 0.1%",3
